According to US8461085B2, “Bioherbicide from Festuca spp” (Cornell Research Foundation, Inc., priority 2005, dated 2013):
“Also recorded” adds a separate entry of the source. Read-outs that look alike come from different tables or passages of the source.

What was measured:
[1] = test system: fine leaf fescue seedlings cultivar Intrigue; assay: Autotoxicity Petri dish bioassay with fine leaf fescue seeds; assay type: in vivo, Festuca rubra L. Subsp. Commutata Gaud.; settings: 20 μM to 160 μM
[2] = test system: selected monocot and dicot plants; assay: General phytotoxicity Petri dish bioassay, weed and crop species taken together; assay type: in vivo
Method: Using the Petri dish bioassay described above, various weed and crop species were tested for their susceptibility to m-tyrosine. Concentrations evaluated were 10, 20, 40, 80, 160, and 320 μM m-tyrosine dissolved in water.
(§1) m-Tyrosine activity was bioassayed using selected weed and crop species. Growth inhibition as measured by radicle elongation was evaluated in dandelion (Taraxacum officinale Weber in Weggers.), large crabgrass (Digitaria sanguinalis (L.) Scop.), velvetleaf (Abutilon theophrasti Medicus), black medic (Medicago lupulina L.), curly cress (Lepidium sativum L.), bamyardgrass (Echinochloa crus-galli.(L.) Beauv.), lettuce (Lactuca sativa L.), purslane (Portulaca oleracea L.), annual bluegrass (Poa annua L.), birdsfoot trefoil (Lotus corniculatus L.), broadleaf plantain (Plantago major L.), mouseear chickweed (Cerastium vulgatum L.), common chickweed (Stellaria media (L.) Vill.), white clover (Trifolium repens L.), wheat (Triticum aestivum L.), tomato (Lycopersicon esculentum var. esculentum P. Mill.), tobacco (Nicotiana tobacum L.), and sorghum sudangrass hybrid (Sorghum bicolor x Sudanese). Weeds were purchased from HerbiSeeds, England, tomato seeds were purchased from Agway (Ithaca N.Y.), and wheat, sudex and tobacco where donated by Pioneer Seeds (Johnson, Iowa). Seeds were sterilized by a water: ethanol mixture (1:1) for one minute and rinsed three times thoroughly in distilled water. The simple phytotoxicity bioassay utilized consisted of the evaluation of radicle length of ten sterilized seeds of each weed/crop deposited on a filter paper containing the appropriate m-tyrosine test solution in 4.5 cm Petri dishes. The amino acid analog, m-tyrosine was purchased from Sigma and formulated at concentrations of 0, 20, 40, 80, 160 and 320 μM by initially dissolving in aqueous solutions. A 1000 μL aliquot of the appropriate test solution was added to individual Petri dishes lined with Whatman No. 1 filter paper. Control dishes received 1000 μL of water. After seeds were placed on moistened filter paper, Petri dishes were transferred to a controlled environment with a light regime of 45,33 photon m^−2 s^−1 and maintained at an average temperature of 25° C. for 7 days. At the end of the incubation period, radicle length was measured. Treatments were replicated three times, and the experiment for each plant species tested was repeated three times.

[3] = test system: lettuce seedlings (Lactuca sativa L.); assay: Soil bioassay, lettuce root growth; assay type: in vivo; settings: for IC50: Lactuca sativa; for Root Length of Lettuce Seedlings: m-tyrosine at 160 μM
[4] = test system: Lettuce; assay: Weed and crop Petri dish bioassay, radicle length; assay type: in vivo, Lactuca sativa L.
Method: (§2) m-Tyrosine activity was bioassayed using selected weed and crop species. Growth inhibition as measured by radicle elongation was evaluated in dandelion (Taraxacum officinale Weber in […].), large crabgrass (Digitaria sanguinalis (L.) Scop.), velvetleaf (Abutilon theophrasti Medicus), black medic (Medicago lupulina L.), curly cress (Lepidium sativum L.), bamyardgrass (Echinochloa crus-galli.(L.) Beauv.), lettuce (Lactuca sativa L.), purslane (Portulaca oleracea L.), annual bluegrass (Poa annua L.), birdsfoot trefoil (Lotus corniculatus L.), broadleaf plantain (Plantago major L.), mouseear chickweed (Cerastium vulgatum L.), common chickweed (Stellaria media (L.) Vill.), white clover (Trifolium repens L.), wheat (Triticum aestivum L.), tomato (Lycopersicon esculentum var. esculentum P. Mill.), tobacco (Nicotiana tobacum L.), and sorghum sudangrass hybrid (Sorghum bicolor x Sudanese). Weeds were purchased from HerbiSeeds, England, tomato seeds were purchased from Agway (Ithaca N.Y.), and wheat, sudex and tobacco where donated by Pioneer Seeds (Johnson, Iowa). Seeds were sterilized by a water: ethanol mixture (1:1) for one minute and rinsed three times thoroughly in distilled water. […] At the end of the incubation period, radicle length was measured. […]

[5] = test system: Tobacco; assay: Weed and crop Petri dish bioassay, radicle length; assay type: in vivo, Nicotiana tobacum L.
Method: as §1, with “[…].),” for “Weggers.),”, “The amino acid analog, m-tyrosine was purchased from Sigma and formulated at concentrations of 0, 20, 40, 80, 160 and 320 μM by initially dissolving in aqueous solutions.” left out, “m^-2 s^-1” for “m^−2 s^−1”

[6] = test system: Sudex; assay: Weed and crop Petri dish bioassay, radicle length; assay type: in vivo, Sorghum bicolor x Sudanese
Method: as §2

[7] = test system: Wheat; assay: Weed and crop Petri dish bioassay, radicle length; assay type: in vivo, Triticum aestivum L.
Method: as §2

[8] = test system: Arabidopsis; assay: Weed and crop Petri dish bioassay, radicle length; assay type: in vivo, Arabidopsis thaliana L.
[9] = test system: Dandelion; assay: Weed and crop Petri dish bioassay, radicle length; assay type: in vivo, Taraxacum officinale Weber in Weggers.
Method: as §1, with “[…].),” for “Weggers.),”, “The amino acid analog, m-tyrosine was purchased from Sigma and formulated at concentrations of 0, 20, 40, 80, 160 and 320 μM by initially dissolving in aqueous solutions.” left out, “m^-2 s^-1” for “m^−2 s^−1”

[10] = test system: Birdsfoot trefoil; assay: Weed and crop Petri dish bioassay, radicle length; assay type: in vivo, Lotus corniculatus L.
Method: as §2

[11] = test system: Annual bluegrass; assay: Weed and crop Petri dish bioassay, radicle length; assay type: in vivo, Poa annua L.
Method: as §1, with “[…].),” for “Weggers.),”, “The amino acid analog, m-tyrosine was purchased from Sigma and formulated at concentrations of 0, 20, 40, 80, 160 and 320 μM by initially dissolving in aqueous solutions.” left out, “m^-2 s^-1” for “m^−2 s^−1”

[12] = test system: Broadleaf Plantain; assay: Weed and crop Petri dish bioassay, radicle length; assay type: in vivo, Plantago major L.
Method: as §2

[13] = test system: Velvetleaf; assay: Weed and crop Petri dish bioassay, radicle length; assay type: in vivo, Abutilon theophrasti Medicus
Method: as §2

[14] = test system: Common Chickweed; assay: Weed and crop Petri dish bioassay, radicle length; assay type: in vivo, Stellaria media (L.) Vill.
Method: as §2

[15] = test system: Barnyard grass; assay: Weed and crop Petri dish bioassay, radicle length; assay type: in vivo, Echinochloa crus-galli (L.) Beauv.
Method: as §2

[16] = test system: Arabidopsis thaliana seedlings; assay: Arabidopsis root growth inhibition in growth media; assay type: in vivo; settings: Arabidopsis thaliana; applied to the growth media; mixture of D and L m-tyrosine; read-out: concentration reducing root length of Arabidopsis by 50%

Structure (SMILES): N[C@@H](Cc1cccc(O)c1)C(=O)O [m-tyrosine, 3-hydroxyphenylalanine]
- root elongation of fescue seedlings [1]: not affected; also recorded: No inhibition
- effect on shoot elongation ([2]; in vivo): inhibitory to shoot elongation
- effect on seed germination ([2]; numerous seedling indicators): did not affect seed germination per se
- IC50 ([2]; range over all plants exposed, read-out: concentration required to observe 50% inhibition of radicle elongation): 10 to 260 µM
- IC50 ([2]; range over other species evaluated (apart from mouseear chickweed), read-out: concentration for 50% inhibition of radicle elongation): 14 to 253 µM
- IC50 ([3]; in soil, read-out: I50, 50% inhibition of root growth of lettuce): ~30 µM
- IC50 ([3]; soil media, lettuce, read-out: concentration reducing root elongation by 50%): 4000 µM
- Root Length of Lettuce Seedlings ([3]; ammonium nitrate 0 mM): 2.07 (0.02) cm
- Root Length of Lettuce Seedlings ([3]; ammonium nitrate 0.125 mM): 3.56 (0.07) cm
- Root Length of Lettuce Seedlings ([3]; ammonium nitrate 0.25 mM): 4.82 (0.1) cm
- Root Length of Lettuce Seedlings ([3]; ammonium nitrate 0.5 mM): 4.8 (0.09) cm
- Root Length of Lettuce Seedlings ([3]; ammonium nitrate 1.0 mM): 4.8 (0.12) cm
- reduction of the inhibition of radicle elongation ([3]; with 1 mM NH4NO3 in comparison to m-tyrosine without soil NH4NO3): approximately 25%
- I10 [4]: 6 µM
- IC50 ([4]; Lactuca sativa, read-out: I50): 20 µM
- I10 [5]: 30 µM
- I100 [5]: 160 µM
- IC50 ([5]; Nicotiana tabacum, read-out: I50): 40 µM
- I10 [6]: 50 µM
- IC50 ([6]; Sorghum bicolor, read-out: I50): 151 µM
- I10 [7]: 80 µM
- IC50 ([7]; Triticum aestivum, read-out: I50): 157 µM
- I10 [8]: 6 µM
- I100 [8]: 50 µM
- IC50 ([8]; Arabidopsis thaliana, read-out: I50): 15 µM
- I10 [9]: 10 µM
- I100 [9]: 160 µM
- IC50 ([9]; Taraxacum officinale, read-out: I50): 39 µM
- I10 [10]: 20 µM
- IC50 ([10]; Lotus corniculatus, read-out: I50): 42 µM
- I10 [11]: 25 µM
- I100 [11]: 320 µM
- IC50 ([11]; Poa annua, read-out: I50): 47 µM
- I10 [12]: 30 µM
- IC50 ([12]; Plantago major, read-out: I50): 72 µM
- I10 [13]: 40 µM
- IC50 ([13]; Abutilon theophrasti, read-out: I50): 168 µM
- I10 [14]: 80 µM
- I100 [14]: 320 µM
- I10 [15]: 80 µM
- IC50 ([15]; Echinochloa crus-galli, read-out: I50): 257 µM
- IC50 [16]: 2 µM
